{"source": "patent US20050144659A1", "about": "“Animals and cells containing a mutated alpha2delta gene” (priority 2003, published 2005)", "key": {"[1]": {"tested_on": "R217A WT, HET and KI mice and parent strains", "experiment": "Vogel water-lick conflict", "format": "in vivo, mouse", "details": "for anxiolytic-like effect: R217A knockins", "from_the_text": "Albino or C57BL/6J-Tyr were also included in the experiments for comparison purposes. Male C57BL/6J (Jackson Laboratories), and 129S6/SvEV (Taconic Farms) mice were received at 8 weeks old in quantities sufficient for each study to be completed in one experiment. Parent strains were housed one week prior to testing.\nOn the side of each chamber (1.5 in. above the floor) a module optical lickometer was mounted. The lickometer was used to measure licking from a drink tube attached to a water bottle mounted on the exterior of the chamber. A photo beam was piped via glass rods across a gap at the end of the drink tube. The subject's tongue breaks the beam when it drinks from the tube and each lick was automatically recorded. […] The reduced chamber space limited the animal's activity and directed behavior towards the drink tube during a 10-minute session. The front and back of the test chamber was made of clear Plexiglas. The front door was covered to reduce distractions from inside the test room. The back of the test chamber faced a wall, away from the flow of traffic in the testing room, and remained uncovered to provide the opportunity for observations. Shock was delivered between the grid floor and the drink tube using a (Coulbourn) programmable universal shocker for a duration of one second, but terminated immediately when contact between the animal and drink tube was broken.\nPROCEDURE: On day one, after 24 hours of water deprivation, experimental subjects were placed in the test chambers and allowed to drink unpunished for a 10-minute training session. Mice were required to complete a 100-150 lick criteria during the training session. […] Immediately after the day one session mice were returned to their home cages and deprived of water and food for an additional 24 hours. On test day two, mice were dosed by intraperitoneal (IP) injection with vehicle or test compound. After a 60 or 120-minute absorption period mice were placed into the test chambers for a 10-minute test session. During the test, shock was delivered on a fixed ratio (FR) 10 schedule. Therefore, after every 10th lick the subject received a mild shock. […] A low number of shock episodes accepted reflects anxiety-related behavior. Standard anxiolytic drugs produce effects that allow mice to overcome the behavioral inhibition and drink despite the shock. […] All data were analyzed using a one-way ANOVA/Dunn's Method.\nDRUGS: Pregabalin was dissolved in physiological saline for all experiments. The positive control diazepam was suspended in 2% cremophor in physiological saline.\nC57BL/6J mice were tested at 0.4 mA, C57BL/6J-Tyr mice were tested at 0.1 mA and 129S6/SvEV mice were tested at 0.6 mA. […]"}, "[2]": {"tested_on": "R217A mutant lines and background mouse strains", "experiment": "Maximal electroshock procedure (MES)", "format": "in vivo", "details": "for responsiveness to anticonvulsant effects: all background strains, mutant, heterozygous mutant and wildtype (all lines)", "protocol": "Anticonvulsant effectiveness was determined by using an electroconvulsive seizure model as described elsewhere [White et al., 1995]. Mice had free access to food and water and were housed in a temperature and light-controlled environment (12 h on/12 h off) prior to drug administration. Electroshock in mice was delivered using corneal electrodes with varied electroshock intensity. Current was delivered (60 Hz sinusoidal current, 11 to 17 mA baseline to peak vs. 50 mA for 0.2 s) using a constant-current stimulator (Wahlquist Instruments, Salt Lake City, Utah). The intensities of current necessary to produce tonic extensor seizures for each mouse strain and mutant lines in all of the mice were determined. These currents were then used for further testing of mice with pregabalin. All dose-response testing was conducted at the previously determined time of peak drug effect. Groups of 10 mice each were give various intraperitoneal doses of pregabalin dissolved in 0.9% saline, diazepam (veh) or phenyloin and given in a volume of 10 ml/kg of body weight. ED50 values (calculated dose required to inhibit the hindlimb tonic-extensor component of the maximal electroshock seizure in 50% of the animals tested) were determined by probit analysis [Litchfield, Wilcoxon], and used to compare relative potency between compounds. At least four groups of mice and each animal was employed once. The animals, pretreated with different doses of the tested drugs, were challenged with one electroshock at previously determined times of peak drug effect (pregabalin: 120 min; diazepam: 60 min; phenyloin; 60 min).\nAnticonvulsant effects of pregabalin were reduced in −/− mice as compared to the +/+mice."}, "α2/δ2": {"target": "α2/δ2 (Homo sapiens, UniProt Q9NY47)", "sequence (Q9NY47 19-1150)": "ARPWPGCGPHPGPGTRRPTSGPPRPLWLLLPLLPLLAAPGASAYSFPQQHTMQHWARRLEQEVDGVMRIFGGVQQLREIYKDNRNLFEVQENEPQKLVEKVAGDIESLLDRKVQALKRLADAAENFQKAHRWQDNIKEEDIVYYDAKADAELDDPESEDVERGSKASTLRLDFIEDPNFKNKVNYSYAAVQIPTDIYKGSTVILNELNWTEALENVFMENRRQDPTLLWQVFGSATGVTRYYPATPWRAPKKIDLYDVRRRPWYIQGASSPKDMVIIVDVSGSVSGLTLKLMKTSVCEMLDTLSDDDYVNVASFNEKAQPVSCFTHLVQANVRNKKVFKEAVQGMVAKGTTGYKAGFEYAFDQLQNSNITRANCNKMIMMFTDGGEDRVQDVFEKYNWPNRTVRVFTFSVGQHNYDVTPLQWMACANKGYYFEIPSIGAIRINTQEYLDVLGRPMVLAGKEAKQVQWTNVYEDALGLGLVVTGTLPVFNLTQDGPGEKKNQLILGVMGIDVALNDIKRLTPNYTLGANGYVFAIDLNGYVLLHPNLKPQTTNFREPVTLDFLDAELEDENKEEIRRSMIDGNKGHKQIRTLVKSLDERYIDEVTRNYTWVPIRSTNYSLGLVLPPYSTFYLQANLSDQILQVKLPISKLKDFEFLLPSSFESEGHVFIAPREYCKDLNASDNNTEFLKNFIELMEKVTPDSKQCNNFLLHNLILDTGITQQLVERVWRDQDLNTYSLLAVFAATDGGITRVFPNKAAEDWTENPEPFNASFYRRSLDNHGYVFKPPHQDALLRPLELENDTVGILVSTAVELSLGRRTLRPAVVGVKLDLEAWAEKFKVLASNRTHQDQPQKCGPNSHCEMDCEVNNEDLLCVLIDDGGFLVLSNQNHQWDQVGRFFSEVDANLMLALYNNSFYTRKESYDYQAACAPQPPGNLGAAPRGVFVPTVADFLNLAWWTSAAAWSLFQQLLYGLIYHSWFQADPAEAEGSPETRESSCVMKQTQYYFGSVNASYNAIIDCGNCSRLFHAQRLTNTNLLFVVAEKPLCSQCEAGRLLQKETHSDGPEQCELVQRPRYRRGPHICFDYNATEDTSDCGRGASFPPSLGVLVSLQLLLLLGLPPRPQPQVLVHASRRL", "sequence (Q9NY47 1002-1150 partner limits assumed)": "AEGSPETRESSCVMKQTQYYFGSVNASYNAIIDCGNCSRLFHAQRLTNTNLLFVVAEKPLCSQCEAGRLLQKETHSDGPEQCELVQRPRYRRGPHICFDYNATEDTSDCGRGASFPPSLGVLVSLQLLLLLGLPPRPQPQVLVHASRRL", "details": "background statement; cited from earlier work"}, "[3]": {"tested_on": "brain membranes from the R217A mutant mouse", "experiment": "3H gabapentin binding to mouse brain membranes", "details": "R217A mutant mouse in comparison to wildtype mice; tracer 3H gabapentin; FIG. 3", "experimental": "Membranes were prepared from whole mouse brains. […] Total binding was determined in the absence of competitor. Non-specific binding was determined in the presence of 10 μM unlabeled pregabalin."}, "[4]": {"tested_on": "α2/δ1 R217A wild type, heterozygous, and homozygous mice", "experiment": "Formalin foot-pad procedure (formalin-induced hyperalgesia)", "format": "in vivo, mouse", "details": "mice with arg 217 changed to alanine versus heterozygous and wildtype; PO, 120 minutes prior to testing; FIG. 4", "protocol": "Male α2/δ1 R217A wild type, heterozygous, and homozygous mice, weighing 1940 grams, were used for testing. Animals were maintained on a 12 hour light/dark cycle with food and water available ad libitum. Animals were food deprived overnight the day before testing. On test day, animals were acclimated to the observation chambers for approximately 60 min. The observation chambers were eight inch square boxes consisting of solid, acrylic plastic mirrors for the floor and 3 walls. The fourth wall was clear acrylic that allowed for observation. Animals were dosed PO with either vehicle or pregabalin, 120 minutes prior to testing at a dose volume 10 mL/kg. At test time, animals received a 25 μL injection of a 5% formalin solution in water in the plantar surface of the left hind foot. […] These behaviors were timed using a hand-held stopwatch and recorded at 5 min intervals. Data was analyzed by the two distinct phases of responding. Early phase responding included Minutes 0-10, and late phase responding included Minutes 1145. The total time spent licking by drug-treated animals in each phase was compared to the total time spent licking by vehicle-treated animals.\nFIG. 4 depicts formalin-induced hyperalgesia in R217A mutant homozygous mice in comparison to that of heterozygous and wildtype mice."}, "[5]": {"tested_on": "α2/δ1 R217A wild type and homozygous mice", "experiment": "Tail Suspension Test (TST)", "format": "in vivo, mouse", "details": "R217A homozygous mutant versus wildtype mice; dosed 120 minutes prior to testing; FIG. 5", "protocol": "Male α2/δ1 R217A wild type and homozygous mice, weighing 22-35 grams, were used for testing. Animals were maintained on a 12 hour light/dark cycle with food and water available ad libitum. Animals were food deprived overnight the day before testing. On test day, animals were placed by groups of 8 into holding cages to acclimate for sixty minutes prior to dosing. Vehicle or pregabalin was administered 120 minutes prior to testing at a dose volume of 10 mL/kg. At test time, a piece of transparent tape was placed around the distal portion of the tail. The tape was then attached to a hook connected to an electro-mechanical apparatus that recorded the amount of time a mouse moved and the force used during movement. The hook was located at the top of a 24×18 cm testing chamber. Animals were completely suspended in air approximately 5 cm off the floor of the chamber for six minutes. Mean time of struggling and force of movement were then calculated for each group of eight.\nAnimals are placed by groups of eight into holding cages to acclimate for thirty to sixty minutes prior to dosing. Treatments are generally administered 60 to 120 minutes prior to testing, although this also varies with specific compounds. At test time, a piece of scotch tape is placed around the distal portion of the tail. […]"}, "[6]": {"tested_on": "R217A knock-in and wild-type mice", "experiment": "Chronic constriction injury (CCI)-induced static allodynia, von Frey hairs", "format": "in vivo, mouse", "details": "sub cutaneous 30-100 mg/kg, FIG. 8", "from_the_text": "Animals were placed in an anaesthetic chamber and anaesthetised with a 2% isofluorane O2 mixture. The right hind thigh is shaved and swabbed with 1% iodine. Animals were then transferred to a homeothermic blanket for the duration of the procedure and anaesthesia maintained during surgery via a nose cone. The skin was cut along the line of the thigh bone. The common sciatic nerve was exposed at the middle of the thigh by blunt dissection through biceps femoris. Proximal to the sciatic trifurcation, about 5 mm of nerve was freed by inserting forceps under the nerve and the nerve gently lifted out of the thigh. The forceps were gently opened and closed several times to aid clearance of the fascia from the nerve. […]\nAnimals were habituated to wire test cages prior to the assessment of allodynia. Static allodynia was evaluated by application of von Frey hairs (Stoelting, Wood Dale, Ill., U.S.A.) in ascending order of force ([…], 0.4, 0.6, 1.0, 1.5 and 2.0 g) to the plantar surface of hind paws. […] The lowest amount of force required to elicit a response was recorded as paw withdrawal threshold (PWT) in grams. […]\nBaseline (BL) paw withdrawal thresholds (PWT) to von Frey hairs were assessed. Following drug administration PWT were re-assessed for up to 4 h. […]"}}}
{"molecule": "CN1C(=O)CN=C(c2ccccc2)c2cc(Cl)ccc21", "note": "[diazepam]", "values": [{"measurement": "anxiolytic-like effect", "setting": "[1]", "result": "Diazepam (+control) failed to produce an anxiolytic-like effect in R217A knockins. Data suggests 129S6-parent strain's genotype may be responsible for pharmacological profile of diazepam"}, {"measurement": "responsiveness to anticonvulsant effects", "setting": "[2]; FIG. 9", "result": "fully responsive"}]}
{"molecule": "NCC1(CC(=O)O)CCCCC1", "note": "[gabapentin, 1-(aminomethyl)cyclohexaneacetic acid]", "values": [{"measurement": "binding affinity", "setting": "α2/δ2", "result": "high affinity"}, {"measurement": "gabapentin binding to brain membranes", "setting": "[3]", "result": "reduced, or greatly abolished"}]}
{"molecule": "CC(C)C[C@H](CN)CC(=O)O", "note": "[pregabalin]", "values": [{"measurement": "efficacy in formalin-induced hyperalgesia (licking or biting of injected foot)", "setting": "[4]", "result": "reduced efficacy"}, {"measurement": "sedative and/or anxiolytic effect in TST", "setting": "[5]", "result": "exerts its sedative and/or anxiolytic effect in TST through the α2/δ1 polypeptide"}, {"measurement": "effect on CCI-induced punctate allodynia (paw withdrawal threshold)", "setting": "[6]; knock-in mice", "result": "no effect"}, {"measurement": "blockade of CCI-induced punctate allodynia (paw withdrawal threshold)", "setting": "[6]; wild type mice", "result": "significant blockade"}, {"measurement": "increase @ 100 (punished responding)", "setting": "[1]; Knockins, shock 0.7 mA, dose 100 (mg/kg IP)", "result": "non-significant"}, {"measurement": "anxiolytic-like effect", "setting": "[1]", "result": "Pregabalin did not produce a significant anxiolytic-like effect in R217A knockins, and no evidence was obtained relating phenotype to particular parent strain"}, {"measurement": "increase in punished licking", "setting": "[1]; knock-in mice homozygous for R217A, compared to wild-type, heterozygous or back-ground strains", "result": "does not produce a statistically significant increase"}, {"measurement": "potency in protecting against seizures", "setting": "[2]; mutant mice versus wild-type, heterozygous or back-ground strains", "result": "less potent"}, {"measurement": "anticonvulsant effects", "setting": "[2]; −/− mice as compared to +/+ mice, FIG. 9", "result": "reduced"}, {"measurement": "sensitivity to effects in MES", "setting": "[2]; −/− mice versus +/+ mice, FIG. 9", "result": "less sensitive"}]}
{"molecule": "O=C1NC(=O)C(c2ccccc2)(c2ccccc2)N1", "note": "[phenyloin]", "values": [{"measurement": "responsiveness to anticonvulsant effects", "setting": "[2]; FIG. 9", "result": "fully responsive"}]}
